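Growth conditions: 96-well plates. Treatment: test compound, 48 hours, 5 concentrations. Analysis: linear interpolation between bracketing concentrations; unreached endpoints set to highest concentration. Here, GI50 denotes the concentration required for 50% inhibition of growth. TGI: total growth inhibition.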
What was measured:
Experiment in all cases: NCI-60 cell line screen, 48 h
HCT-15 colon = tested on: HCT-15 colon
SK-OV-3 ovarian = tested on: SK-OV-3 ovarian
KM12 colon = tested on: KM12 colon
UACC-257 melanoma = tested on: UACC-257 melanoma
NCI-H226 lung = tested on: NCI-H226 lung
DU-145 prostate = tested on: DU-145 prostate
HOP-92 NSCLC = tested on: HOP-92 NSCLC
T-47D breast = tested on: T-47D breast
OVCAR-4 ovarian = tested on: OVCAR-4 ovarian
RXF 393 renal = tested on: RXF 393 renal

SMILES | GI50 (HCT-15 colon) [µM] | TGI (HCT-15 colon) [µM] | GI50 (SK-OV-3 ovarian) [µM] | TGI (SK-OV-3 ovarian) [µM] | GI50 (KM12 colon) [µM] | TGI (KM12 colon) [µM] | GI50 (UACC-257 melanoma) [µM] | TGI (UACC-257 melanoma) [µM] | GI50 (NCI-H226 lung) [µM] | TGI (NCI-H226 lung) [µM] | GI50 (DU-145 prostate) [µM] | TGI (DU-145 prostate) [µM] | GI50 (HOP-92 NSCLC) [µM] | TGI (HOP-92 NSCLC) [µM] | GI50 (T-47D breast) [µM] | TGI (T-47D breast) [µM] | GI50 (OVCAR-4 ovarian) [µM] | TGI (OVCAR-4 ovarian) [µM] | TGI (RXF 393 renal) [µM] | GI50 (RXF 393 renal) [µM]
Cc1ccc(-n2c(-c3cc4c([nH]c5ccccc54)c(-c4cccc(O)c4)n3)n[nH]c2=S)cc1 | 0.61 | 6.94 | 1.18 | 4.44 | 1.15 | 5.1 | 2.03 | 7.11 | 0.658 | 3.94 | 0.616 | 6.17 | 4.76 | 27.4 | 1.8 | 11.9 | 2.23 | 11 |  | 
O=C(CC(=O)c1ccccc1)C(=O)Nc1ccc(Cl)cc1 |  | > 59.7 |  | > 100 |  | > 100 |  | > 100 |  | > 100 |  |  |  | > 100 |  |  |  | > 100 | > 100 | 
O=C(c1ccco1)c1c(C(F)(F)F)n([O-])c2cc(F)c(F)cc2[n+]1=O | < 0.0464 | 0.149 | 0.346 | 1.11 | 0.7 | 2 | 1.29 | 3.01 | 0.926 | 2.35 | 0.238 | 0.727 | 1.49 | 3.21 | 0.782 | 22.7 |  |  | 0.531 | 0.193
CC(C)OC(=O)C1Cc2c([nH]c3ccccc23)C(c2ccccc2)N1 (centres undefined) |  | > 100 |  | > 100 |  | > 100 |  | > 100 |  | > 100 |  |  |  | > 100 |  |  |  | > 100 | 98.3 | 
C=C1C(=O)O[C@H]2[C@H]1CC/C(COC(=O)NCc1c[nH]c3ccc(F)cc13)=C\CC[C@@]1(C)O[C@@H]21 | 1.04 | 2.55 | 11.1 | 23.1 | 3.03 | 10.3 | 1.69 | 3.29 | 1.74 | 3.3 | 1.08 | 2.48 | 1.48 | 3.04 |  |  | 1.52 | 3.59 | 3 | 1.53
O=S(=O)(NCCCNc1nccc(-c2c(-c3ccc(F)cc3)nc3sccn23)n1)c1ccc(F)cc1 | 3.92 | > 100 | 17.1 | > 100 |  |  | 21.9 | > 100 | 4.76 | 77.5 | 10.8 | > 100 |  |  | 2.28 | 13.2 | 3.53 | 26.7 | 70.8 | 3.67
O=C(Cc1ccccc1)C(c1ccccc1)S(=O)(=O)c1ccccc1 (centres undefined) |  | > 100 |  | > 100 |  | > 100 |  | > 100 |  | > 100 |  |  |  | > 100 |  |  |  | > 100 | > 100 | 
C[P+]1(c2ccccc2)CCCCC1 |  | > 100 |  | > 100 |  | > 100 |  | > 100 |  |  |  |  |  |  |  |  |  | > 100 | > 100 | 
C=C1C=CC2(Br)OC3CC(C)(Cl)C(Br)CC13C2(C)C (centres undefined) |  | 51.3 |  | > 100 |  | 58.9 |  | 42.8 |  | 34.1 |  |  |  | 50.8 |  |  |  | > 100 |  | 
O=C1C(Sc2ccc3ccccc3c2)=C(Sc2ccc3ccccc3c2)C(=O)c2ccccc21 |  | 23.5 |  | 68.2 |  |  |  | 16.3 |  | 37.4 |  | 84.4 |  | 22.3 |  | 4.62 |  | 15.2 | 32.6 | 
CC(=O)Nc1ccc(S(=O)(=O)NN(C)S(=O)(=O)c2ccc(C)cc2)cc1 |  |  |  | > 100 |  | > 100 |  | > 100 |  |  |  |  |  | > 100 |  |  |  | > 100 | > 100 | 
C=CC(=O)N[C@@H](/C=C/C(=O)OCC)Cc1ccc(-c2cc(Cl)cc(Cl)c2)cc1 | 8.01 | > 100 | 19.4 | 63.1 | 16.6 | 93.7 |  |  | 16.7 | 71.7 | 12.9 | 64.2 |  |  | 3.35 | 28 | 5.23 | 74.4 | 35.3 | 7.96
N#CC1C(N)=NNC12Nc1ccccc1S2 (centres undefined) | 15.5 | 64.2 | 25.9 | > 100 | 18.9 | 91.6 | 13.6 | 44.4 |  |  | 15.6 | 55.3 | 34.7 | > 100 | 4.04 | 50.3 |  |  |  | 
Cc1ccc(NC(=O)/C(C#N)=C/c2ccccc2)c(C)c1 |  | > 100 |  | > 100 |  | > 100 |  | > 100 |  | > 100 |  |  |  | > 100 |  |  |  | > 100 | > 100 | 
Nc1nc(C(=O)O)c(N=Nc2ccccc2)c(=O)[nH]1 |  | > 100 |  | > 100 |  | > 100 |  | > 100 |  | > 100 |  | > 100 |  | > 100 |  |  |  | > 100 | > 100 | 
CC(=O)[CH-]C(C)=O.CC(=O)[CH-]C(C)=O.CC(=O)[CH-]C(C)=O.[Ga+3] | > 100 | > 100 |  |  | > 100 | > 100 |  |  | > 100 | > 100 |  |  |  |  |  |  | > 100 | > 100 | > 100 | > 100
CC(=O)CC(=O)CCC(=O)Nc1cccc(C(F)(F)F)c1 |  | > 100 |  | > 100 |  | > 100 |  | > 100 |  | > 100 |  |  |  | > 100 |  |  |  | > 100 |  | 
Cc1nnc(N/N=C(/C(=O)C(C#N)c2ccc(Cl)cc2)C(C#N)c2ccc(Cl)cc2)n1N (centres undefined) |  | 49.4 |  |  |  | 39.8 |  | 33.1 |  | 33.5 |  |  |  | > 100 |  |  |  | 32.9 | 31.6 | 
CCOC(=O)C(CCCNC(=O)OC(C)(C)C)N(Cc1ccc(OC)cc1OC)C(=O)CC(=O)CP(=O)(OCC)OCC (centres undefined) |  |  |  | > 100 |  | > 100 |  | > 100 |  | > 100 |  |  |  | > 100 |  |  |  | > 100 | > 100 | 
O=C(CO)C1CC2C=CC1C2 (centres undefined) |  | > 100 |  | > 100 |  | > 100 |  | > 100 |  |  |  |  |  | > 100 |  |  |  | > 100 | > 100 | 
N#CNC1=NC(N)C(c2nc3ccccc3[nH]2)=C(CCCC(=O)Nc2cccc([N+](=O)[O-])c2)N1 (centres undefined) |  | > 100 |  | > 100 |  | > 100 |  | > 100 |  | > 100 |  |  |  |  |  |  |  | > 100 | > 100 | 

From PubChem BioAssay (NCI)
